Test results from patent publication US10392347B2, “2,4-dihydroxy-nicotinamides as APJ agonists” (BRISTOL-MYERS SQUIBB COMPANY, priority 2015, dated 2019).
Where two headings read alike, the source gives them in different places.

Molecular target: T1, human APJ receptor (Homo sapiens, UniProt P35414)
T1 construct: expressed in transfected cells
T1 sequence (P35414 1-380): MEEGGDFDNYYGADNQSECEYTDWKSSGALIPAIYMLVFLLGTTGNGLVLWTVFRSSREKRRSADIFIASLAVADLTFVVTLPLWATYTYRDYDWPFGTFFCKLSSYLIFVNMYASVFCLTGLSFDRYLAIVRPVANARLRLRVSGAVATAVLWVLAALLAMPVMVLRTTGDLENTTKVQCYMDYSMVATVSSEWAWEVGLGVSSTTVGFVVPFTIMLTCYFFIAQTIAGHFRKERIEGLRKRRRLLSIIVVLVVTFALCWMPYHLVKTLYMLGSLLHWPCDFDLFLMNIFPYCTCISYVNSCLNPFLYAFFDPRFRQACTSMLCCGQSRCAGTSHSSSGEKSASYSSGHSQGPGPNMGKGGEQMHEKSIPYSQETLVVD
Experiment: Intracellular cAMP accumulation assay (APJ hcAMP, HTRF)
Assay type: cell-based
Conditions: Table 1, HEK293 cells stably expressing human APJ, forskolin-stimulated cAMP
Protocol: Intracellular cAMP Accumulation Assay
HEK293 cells stably expressing human APJ receptor were used to assess the activity of compounds. Cultured cells were detached and resuspended in the cAMP Homogeneous Time-Resolved Fluorescence (HTRF) assay buffer (Cisbio cat; #62AM4PEJ). […] Serial dilutions of a compound together with assay buffer containing […] and 2 μM forskolin were added to each well containing 5,000 cells and incubated for 30 minutes at room temperature. Subsequently, cAMP D2 reagent was added in the lysis buffer followed by the EuK antibody (Cisbio; cat #62AM4PEJ) and incubated for 60 min. The fluorescence emission ratio was measured using fluorometer. The intracellular cAMP concentrations (compound-stimulated inhibition of forskolin-mediated cAMP production) were calculated by extrapolation from a standard curve using known cAMP concentrations. The EC50 values were obtained by fitting the data to a sigmoidal concentration-response curve with variable slope.
The EC50 value of each compound is presented at the end of the example description.
The biological activity of the exemplified compounds of this invention determined by the assay described above is shown at the end of each example.

| EC50 (read-out: APJ cAMP EC50) | EC50 (APJ cAMP EC50 (nM)) | Structure (SMILES) |
| --- | --- | --- |
| 10 to 100 nM |  | CCCCc1nc(O)c(C(=O)N2CCC(O)(c3ccccc3)CC2)c(O)c1-c1c(OC)cccc1OC [Example 46, 6-butyl-5-(2,6-dimethoxyphenyl)-3-(4-hydroxy-4-phenylpiperidine-1-carbonyl)pyridine-2,4-diol] |
| 10 to 100 nM |  | CCCCc1nc(O)c(C(=O)N2CCC(O)(c3ccc(Cl)cc3)CC2)c(O)c1-c1c(OC)cccc1OC [Example 47, 6-butyl-3-[4-(4-chlorophenyl)-4-hydroxypiperidine-1-carbonyl]-5-(2,6-dimethoxyphenyl)pyridine-2,4-diol] |
| 10 to 100 nM |  | CCCCc1nc(O)c(C(=O)N2CCC(c3nc4ccccc4s3)CC2)c(O)c1-c1c(OC)cccc1OC [Example 48, 3-[4-(1,3-benzothiazol-2-yl)piperidine-1-carbonyl]-6-butyl-5-(2,6-dimethoxyphenyl)pyridine-2,4-diol] |
| 0.01 to 10 nM |  | CCCCc1nc(O)c(C(=O)N2CCN(c3nsc4ccccc34)CC2)c(O)c1-c1c(OC)cccc1OC [Example 49, 3-[4-(1,2-benzothiazol-3-yl)piperazine-1-carbonyl]-6-butyl-5-(2,6-dimethoxyphenyl)pyridine-2,4-diol] |
| 10 to 100 nM |  | CCCCc1nc(O)c(C(=O)N2CCC3(CC2)OC(=O)Nc2ccccc23)c(O)c1-c1c(OC)cccc1OC [Example 50, 1′-[6-butyl-5-(2,6-dimethoxyphenyl)-2,4-dihydroxypyridine-3-carbonyl]-1,2-dihydrospiro[3,1-benzoxazine-4,4′-piperidine]-2-one] |
| 10 to 100 nM |  | CCCCc1nc(O)c(C(=O)N2CCN(c3nc4ccccc4o3)CC2)c(O)c1-c1c(OC)cccc1OC [Example 51, 3-[4-(1,3-benzoxazol-2-yl)piperazine-1-carbonyl]-6-butyl-5-(2,6-dimethoxyphenyl)pyridine-2,4-diol] |
| 0.01 to 10 nM |  | CCCCc1nc(O)c(C(=O)N2CCN(c3nnnn3-c3ccccc3)CC2)c(O)c1-c1c(OC)cccc1OC [Example 52, 6-butyl-5-(2,6-dimethoxyphenyl)-3-[4-(1-phenyl-1H-1,2,3,4-tetrazol-5-yl)piperazine-1-carbonyl]pyridine-2,4-diol] |
| 10 to 100 nM |  | CCCCc1nc(O)c(C(=O)N2CCCN(c3nnnn3-c3ccccc3)CC2)c(O)c1-c1c(OC)cccc1OC [Example 53, 6-butyl-5-(2,6-dimethoxyphenyl)-3-[4-(1-phenyl-1H-1,2,3,4-tetrazol-5-yl)-1,4-diazepane-1-carbonyl]pyridine-2,4-diol] |
| 10 to 100 nM |  | CCCCc1nc(O)c(C(=O)N2CCN(c3nc4ccccc4s3)CC2)c(O)c1-c1c(OC)cccc1OC [Example 54, 3-[4-(1,3-benzothiazol-2-yl)piperazine-1-carbonyl]-6-butyl-5-(2,6-dimethoxyphenyl)pyridine-2,4-diol] |
| 10 to 100 nM |  | CCCCc1nc(O)c(C(=O)N2CCC(c3c[nH]cn3)CC2)c(O)c1-c1c(OC)cccc1OC [Example 55, 6-butyl-5-(2,6-dimethoxyphenyl)-3-[4-(1H-imidazol-4-yl)piperidine-1-carbonyl]pyridine-2,4-diol] |
| 10 to 100 nM |  | CCCCc1nc(O)c(C(=O)N2CCC(c3cccc(Cl)c3)CC2)c(O)c1-c1c(OC)cccc1OC [Example 56, 6-butyl-3-[4-(3-chlorophenyl)piperidine-1-carbonyl]-5-(2,6-dimethoxyphenyl)pyridine-2,4-diol] |
| 10 to 100 nM |  | CCCCc1nc(O)c(C(=O)N2CCN(c3ccccc3Cl)CC2)c(O)c1-c1c(OC)cccc1OC [Example 57, 6-butyl-3-[4-(2-chlorophenyl)piperazine-1-carbonyl]-5-(2,6-dimethoxyphenyl)pyridine-2,4-diol] |
| 10 to 100 nM |  | CCCCc1nc(O)c(C(=O)N2CCN(c3cccc(Cl)c3)CC2)c(O)c1-c1c(OC)cccc1OC [Example 58, 6-butyl-3-[4-(3-chlorophenyl)piperazine-1-carbonyl]-5-(2,6-dimethoxyphenyl)pyridine-2,4-diol] |
| 10 to 100 nM |  | CCCCc1nc(O)c(C(=O)N2CCN(c3ccccn3)CC2)c(O)c1-c1c(OC)cccc1OC [Example 59] |
| 10 to 100 nM |  | CCCCc1nc(O)c(C(=O)N2CCN(c3nc(-c4ccccc4)ns3)CC2)c(O)c1-c1c(OC)cccc1OC [Example 60, 6-butyl-5-(2,6-dimethoxyphenyl)-3-[4-(3-phenyl-1,2,4-thiadiazol-5-yl)piperazine-1-carbonyl]pyridine-2,4-diol] |
| 10 to 100 nM |  | CCCCc1nc(O)c(C(=O)N2CCC(N3CCCC3)CC2)c(O)c1-c1c(OC)cccc1OC [Example 61, 6-butyl-5-(2,6-dimethoxyphenyl)-3-[4-(pyrrolidin-1-yl)piperidine-1-carbonyl]pyridine-2,4-diol] |

The next lines start with the compound.

| Structure (SMILES) | EC50 (read-out: APJ cAMP EC50) | EC50 (APJ cAMP EC50 (nM)) |
| --- | --- | --- |
| CCOCc1nc(O)c(C(=O)N2CC[C@@H](c3ccccc3)C2)c(O)c1-c1c(OC)cccc1OC [Example 25, 5-(2,6-dimethoxyphenyl)-6-(ethoxymethyl)-3-[(3S)-3-phenylpyrrolidine-1-carbonyl]pyridine-2,4-diol] | 10 to 100 nM |  |
| CCOCc1nc(O)c(C(=O)N2CC[C@H](c3ccccc3)C2)c(O)c1-c1c(OC)cccc1OC [Example 26, 5-(2,6-dimethoxyphenyl)-6-(ethoxymethyl)-3-[(3R)-3-phenylpyrrolidine-1-carbonyl]pyridine-2,4-diol] | 10 to 100 nM |  |
| CCCCc1[nH]c(=O)c(C(=O)N(C)CCc2ccc(Cl)cc2)c(O)c1-c1c(OC)cccc1OC [Example 27, 6-butyl-N-[2-(4-chlorophenyl)ethyl]-5-(2,6-dimethoxyphenyl)-2,4-dihydroxy-N-methylpyridine-3-carboxamide] |  | 10 to 100 nM |
| CCCCc1[nH]c(=O)c(C(=O)N2CC[C@H](c3ccccc3)C2)c(O)c1-c1c(OC)cccc1OC [Example 28, 6-butyl-5-(2,6-dimethoxyphenyl)-3-[(3R)-3-phenylpyrrolidine-1-carbonyl]pyridine-2,4-diol] |  | 0.01 to 10 nM |
| CCCCc1[nH]c(=O)c(C(=O)N2CC[C@@H](c3ccccc3)C2)c(O)c1-c1c(OC)cccc1OC [Example 29, 6-butyl-5-(2,6-dimethoxyphenyl)-3-[(3S)-3-phenylpyrrolidine-1-carbonyl]pyridine-2,4-diol] |  | 0.01 to 10 nM |
| CCCCc1nc(O)c(C(=O)N2CCN(c3ccccc3)CC2)c(O)c1-c1c(OC)cccc1OC [Example 30, 6-butyl-5-(2,6-dimethoxyphenyl)-3-(4-phenylpiperazine-1-carbonyl)pyridine-2,4-diol] | 10 to 100 nM |  |
| CCCCc1nc(O)c(C(=O)N2CCN(Cc3ccc(Cl)cc3)CC2)c(O)c1-c1c(OC)cccc1OC [Example 31, 6-butyl-3-{4-[(4-chlorophenyl)methyl]piperazine-1-carbonyl}-5-(2,6-dimethoxyphenyl)pyridine-2,4-diol] | 0.01 to 10 nM |  |
| CCCCc1nc(O)c(C(=O)N2CCC(c3nc4ccccc4o3)CC2)c(O)c1-c1c(OC)cccc1OC [Example 32, 3-[4-(1,3-benzoxazol-2-yl)piperidine-1-carbonyl]-6-butyl-5-(2,6-dimethoxyphenyl)pyridine-2,4-diol] | 10 to 100 nM |  |
| CCCCc1[nH]c(=O)c(C(=O)N(CCC)Cc2ccccc2)c(O)c1-c1c(OC)cccc1OC [Example 33, N-benzyl-6-butyl-5-(2,6-dimethoxyphenyl)-2,4-dihydroxy-N-propylpyridine-3-carboxamide] |  | 100 to 300 nM |
| CCCCc1nc(O)c(C(=O)N2CC(c3cccc(Cl)c3)C2)c(O)c1-c1c(OC)cccc1OC [Example 34, 6-butyl-3-[3-(3-chlorophenyl)azetidine-1-carbonyl]-5-(2,6-dimethoxyphenyl)pyridine-2,4-diol] | 0.01 to 10 nM |  |
| CCCCc1nc(O)c(C(=O)N2CCN(C(=O)c3ccccc3)CC2)c(O)c1-c1c(OC)cccc1OC [Example 41, 3-(4-benzoylpiperazine-1-carbonyl)-6-butyl-5-(2,6-dimethoxyphenyl)pyridine-2,4-diol] | 0.01 to 10 nM |  |
| CCCCc1nc(O)c(C(=O)N2CCN(C(=O)c3cccc(F)c3)CC2)c(O)c1-c1c(OC)cccc1OC [Example 42, 6-butyl-5-(2,6-dimethoxyphenyl)-3-[4-(3-fluorobenzoyl)piperazine-1-carbonyl]pyridine-2,4-diol] | 0.01 to 10 nM |  |
| CCCCc1nc(O)c(C(=O)N2CCN(Cc3ccc(F)cc3)CC2)c(O)c1-c1c(OC)cccc1OC [Example 43, 6-butyl-5-(2,6-dimethoxyphenyl)-3-{4-[(4-fluorophenyl)methyl]piperazine-1-carbonyl}pyridine-2.4-diol] | 0.01 to 10 nM |  |
| CCCCc1nc(O)c(C(=O)N2CCN(Cc3ccccc3F)CC2)c(O)c1-c1c(OC)cccc1OC [Example 44, 6-butyl-5-(2,6-dimethoxyphenyl)-3-{4-[(2-fluorophenyl)methyl]piperiazine-1-carbonyl}pyridine-2.4-diol] | 0.01 to 10 nM |  |
| CCCCc1nc(O)c(C(=O)N2CCN(Cc3cccc(F)c3)CC2)c(O)c1-c1c(OC)cccc1OC [Example 45, 6-butyl-5-(2,6-dimethoxyphenyl)-3-{4-[(3-fluorophenyl)methyl]piperazine-1-carbonyl}pyridine-2,4-diol] | 0.01 to 10 nM |  |
